Patent US20210046139A1, “VEGETATION WATERS AND USES THEREOF” (FATTORIA LA VIALLA DI GIANNI, ANTONIO E BANDINO LO FRANCO - …, priority 2018, published 2021)

Assays:
STZ diabetic rats [1] = assay: Motor and sensory nerve conduction velocity (tail, sciatic nerve); assay type: in vivo, Sprague-Dawley rats; conditions: end of administration (week 12), mean ± S.E.; for Conduction of sciatic nerve: sciatic motor NCV; for Sensitivity of sciatic nerve: sciatic sensory NCV; for Conduction of tail: tail motor NCV; for Sensitivity of tail: tail sensory NCV
From the text: A well-established model of streptozotocin (STZ)-induced diabetes in rats was used. Streptozotocin is a glucosamine derivative of nitrosurea which selectively destroys the β cells of the pancreatic islets and causes the development of diabetes with hyperglycemia and glycosuria. The model shares a series of characteristics with human diabetic complications at both a functional level and a biochemical level, such as, for example, a reduced nervous conduction, loss of small-diameter sensory nerve fibers in the skin, reduction in Na+ and K+-ATPase activity and early alterations of the thermal and mechanical nociceptive thresholds. In this study, diabetes was induced in 24 rats with a single intraperitoneal injection of 60 mg/kg of STZ dissolved in a sodium citrate buffer (pH 4.5). 24 rats injected only with the vehicle were used as non-diabetic controls. Hyperglycemia was confirmed by measuring glycosuria 72 hours after the injection of STZ using Keto-Diabur strips (KD-5000; Roche Diagnostics Spa, Italy). Only the animals with glycosuria >5% were classified as diabetic and included in the study. […] The animals were then randomized to receive the concentrate of the invention at an HT equivalent dose of 50 mg/kg/day or 50 mg/kg/day of pure HT in drinking water, according to the following treatment groups: The electrophysiological studies were performed using a portable electromyograph (Alpine Biomed ApS DK-2740, Denmark). The test on sciatic nerve conduction was performed by stimulating the sciatic nerve in the Achilles tendons and in the hollow above the sciatic nerve at the point of attachment of the tail with a single 2.2 ms supramaximal pulse using a bipolar electrode. A measurement of the motor action potential (CMAP) was obtained by placing the active electrode in subcutaneous tissue, in the first interosseous muscle of a toe of the hind paw, and the reference electrode in the fourth interosseous muscle of the same paw. The motor conduction velocity was calculated by subtracting the distal value from the proximal value taking the latency of the first negative peak of the proximal CMAP, measured in milliseconds, and the difference was […] the distance between the two stimulating electrodes, measured in millimeters. The sensory conduction velocity was determined using the plantar nerve. The sensory nerve action potential (SNAP) of the plantar nerve was measured by placing the recording electrode (needle) in subcutaneous tissue at the level of the […] next to the medial malleolus and the reference electrode proximally at about 1 cm. Circular stimulation electrodes were placed in the middle of the three middle toes of the hind paw, and stimulation was performed with a square pulse wave lasting 0.05 ms, with a barely supramaximal current intensity stimulus. The sensory conduction velocity was calculated by measuring the latency at the negative deviation of the peak potential and the distance between the stimulation electrode and the recording electrode. The motor and sensory conduction velocities are expressed as meters per second. The tail motor and sensory conduction test requires that the sensory nerve of the tail be stimulated by inserting the cathode 2 cm from the tip of the tail and the anode at 1 cm distally, using a square wave pulse lasting 0.05-ms at a supramaximal intensity. The SNAPs were recorded by inserting the active electrode 5 cm from the cathode and the reference electrode at 1 cm more proximally. The sensory nerve conduction velocity was calculated by measuring the latency at the peak of the first negative deflection and the distance between the stimulating and recording electrodes. The tail motor nerve conduction was obtained using a bipolar recording configuration. The active electrode was positioned 2 cm from the tip of the tail and the reference electrode at 1 cm distally. The motor nerve of the tail was initially stimulated at 5 cm proximally from the active recording electrode and, subsequently, proximally at 10 cm. […]

STZ diabetic rats [2] = assay: Plasma total cholesterol, HDL and triglycerides; assay type: in vivo, Sprague-Dawley rats; conditions: 50 mg/kg/day, 5 weeks, mean ± S.E.
From the text: A well-established model of streptozotocin (STZ)-induced diabetes in rats was used. Streptozotocin is a glucosamine derivative of nitrosurea which selectively destroys the β cells of the pancreatic islets and causes the development of diabetes with hyperglycemia and glycosuria. The model shares a series of characteristics with human diabetic complications at both a functional level and a biochemical level, such as, for example, a reduced nervous conduction, loss of small-diameter sensory nerve fibers in the skin, reduction in Na+ and K+-ATPase activity and early alterations of the thermal and mechanical nociceptive thresholds. In this study, diabetes was induced in 24 rats with a single intraperitoneal injection of 60 mg/kg of STZ dissolved in a sodium citrate buffer (pH 4.5). 24 rats injected only with the vehicle were used as non-diabetic controls. Hyperglycemia was confirmed by measuring glycosuria 72 hours after the injection of STZ using Keto-Diabur strips (KD-5000; Roche Diagnostics Spa, Italy). Only the animals with glycosuria >5% were classified as diabetic and included in the study. […] The animals were then randomized to receive the concentrate of the invention at an HT equivalent dose of 50 mg/kg/day or 50 mg/kg/day of pure HT in drinking water, according to the following treatment groups: The daily dose of compounds was administered starting from the 7th week after the injection of STZ or the vehicle. The treatment lasted 5 weeks and urine samples were taken. The animals were then sacrificed and the plasma, kidneys and sciatic nerves were removed. The sacrifice took place within 2 hours after the last administration of the concentrate, HT or the vehicle. At the end of the 5-week treatment period, urine and plasma were collected to measure the level of triglycerides (TG), total cholesterol (TC), high-density lipoprotein (HDL) and other parameters using commercially available diagnostic kits.

[3] = non-diabetic control rats (CTRL)

## OCCc1ccc(O)c(O)c1 [HT, hydroxytyrosol]
STZ diabetic rats [1]; STZ diabetic rats
  Conduction of sciatic nerve: 40.3 ± 0.7 m/sec.
  Sensitivity of sciatic nerve: 33.7 ± 0.9 m/sec.
  Conduction of tail: 37.4 ± 0.9 m/sec.
  Sensitivity of tail: 30.8 ± 0.8 m/sec.
STZ diabetic rats [1]; [3]
  Conduction of sciatic nerve: 46.5 ± 1.5 m/sec.
  Sensitivity of sciatic nerve: 39.0 ± 0.9 m/sec.
  Conduction of tail: 36.1 ± 1.7 m/sec.
  Sensitivity of tail: 34.7 ± 1.3 m/sec.
STZ diabetic rats [2]; STZ diabetic rats
  PLASMA HDL: 48.7 ± 1.6 mg/dL
  PLASMA TC: 118.1 ± 3.0 mg/dL
  PLASMA TG: 457.1 ± 60.7 mg/dL
STZ diabetic rats [2]; [3]
  PLASMA HDL: 27.0 ± 0.4 mg/dL
  PLASMA TC: 84.4 ± 2.1 mg/dL
  PLASMA TG: 111.5 ± 8.6 mg/dL
